The record followed here is patent publication US20230136702A1, “Inhibitors of Human Herpesviruses” (The Governors of the University of Alberta, priority 2020, published 2023).

Where a name gives a salt, the structure may show the parent alone. Read-outs that look alike come from different tables or passages of the source.

As a reminder, the EC50 is the concentration that produces a half-maximal response. What is called CC50 is the concentration at which the toxic effect on the cells reaches its halfway point.

Series [1] has as its target T1, HCMV DNA polymerase (UL54) (Human cytomegalovirus, UniProt P08546).
T1 construct: 6His (C); made in house; host or cells: Sf9 insect cells (baculovirus, pFastBac)
The experiment in a line: HCMV DNA polymerase enzyme inhibition assay (ProFoldin, fluorescence). In kind it is biochemical. As to conditions: 37° C., duplicate, max 40 μM.

Series [2] deals with HCMV US3-6-EGFP-HCMV-AD169 strain. Nature of the series: In vitro inhibitory (antiviral) activity against HCMV, GFP reporter in MRC5 cells. Particulars: Human betaherpesvirus 5, AD169, MRC5, 96 h, read-out: HCMV Antiviral EC50 range. Format: cell-based, Human cytomegalovirus (HCMV). An outline of the steps:
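MRC5 cells were infected with GFP-reporter virus (MOI=0.1) alongside compounds (8 points, 3-fold dilutions, duplicate; top 40 μM test compounds, 100 μM ganciclovir; 0.5% DMSO final) for 4 days at 37 °C. GFP fluorescence inhibition, normalized to virus and cell controls, gave EC50; viability gave CC50.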

Series [3] in a line: Cytotoxicity in MRC5 cells without virus infection (CCK8). Format: cell-based. As to conditions: human.
In the next series the target is T2, hERG potassium channel (Homo sapiens, UniProt Q12809).
T2 construct: host or cells: CHO cells stably expressing hERG
T2 sequence (Q12809 whole entry): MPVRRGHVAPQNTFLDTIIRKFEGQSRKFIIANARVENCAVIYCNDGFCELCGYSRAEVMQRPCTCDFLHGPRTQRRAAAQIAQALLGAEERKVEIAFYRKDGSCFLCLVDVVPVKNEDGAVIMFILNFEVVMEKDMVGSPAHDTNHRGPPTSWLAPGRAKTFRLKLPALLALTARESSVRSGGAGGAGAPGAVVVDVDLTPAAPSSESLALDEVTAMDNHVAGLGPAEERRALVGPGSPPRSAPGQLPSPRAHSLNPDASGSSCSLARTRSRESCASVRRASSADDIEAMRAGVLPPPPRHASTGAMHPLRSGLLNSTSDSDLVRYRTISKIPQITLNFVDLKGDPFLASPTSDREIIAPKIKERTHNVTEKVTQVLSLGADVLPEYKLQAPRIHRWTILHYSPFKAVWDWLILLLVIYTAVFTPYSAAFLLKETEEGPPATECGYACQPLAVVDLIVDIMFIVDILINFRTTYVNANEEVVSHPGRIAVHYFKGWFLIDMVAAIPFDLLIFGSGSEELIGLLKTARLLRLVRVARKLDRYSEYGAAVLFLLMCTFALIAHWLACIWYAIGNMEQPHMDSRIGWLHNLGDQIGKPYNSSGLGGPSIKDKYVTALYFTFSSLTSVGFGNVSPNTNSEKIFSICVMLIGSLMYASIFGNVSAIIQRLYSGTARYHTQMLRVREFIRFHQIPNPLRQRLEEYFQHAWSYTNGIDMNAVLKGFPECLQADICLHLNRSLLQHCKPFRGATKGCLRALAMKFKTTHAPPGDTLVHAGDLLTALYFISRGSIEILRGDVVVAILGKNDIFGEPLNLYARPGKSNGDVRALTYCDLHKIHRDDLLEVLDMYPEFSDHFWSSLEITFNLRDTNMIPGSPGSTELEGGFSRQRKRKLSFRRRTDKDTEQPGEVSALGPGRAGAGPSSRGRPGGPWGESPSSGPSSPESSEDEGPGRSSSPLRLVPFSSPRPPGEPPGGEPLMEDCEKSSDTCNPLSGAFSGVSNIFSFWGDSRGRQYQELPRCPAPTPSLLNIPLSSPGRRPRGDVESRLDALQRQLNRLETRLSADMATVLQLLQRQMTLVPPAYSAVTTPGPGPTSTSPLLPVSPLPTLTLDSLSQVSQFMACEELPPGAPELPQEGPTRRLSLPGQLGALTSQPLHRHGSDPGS
Nature of the series: Inhibition of hERG potassium channel, automated patch clamp (SyncroPatch 384PE) in CHO cells. As to conditions: CHO cells stably expressing hERG, room temperature, 0.494-40.00 μM; read-out: CHO-hERG Activity Range. In kind it is cell-based. (In general: hERG is a cardiac potassium channel; its block is linked to QT prolongation.)

T1 sequence (P08546 whole entry): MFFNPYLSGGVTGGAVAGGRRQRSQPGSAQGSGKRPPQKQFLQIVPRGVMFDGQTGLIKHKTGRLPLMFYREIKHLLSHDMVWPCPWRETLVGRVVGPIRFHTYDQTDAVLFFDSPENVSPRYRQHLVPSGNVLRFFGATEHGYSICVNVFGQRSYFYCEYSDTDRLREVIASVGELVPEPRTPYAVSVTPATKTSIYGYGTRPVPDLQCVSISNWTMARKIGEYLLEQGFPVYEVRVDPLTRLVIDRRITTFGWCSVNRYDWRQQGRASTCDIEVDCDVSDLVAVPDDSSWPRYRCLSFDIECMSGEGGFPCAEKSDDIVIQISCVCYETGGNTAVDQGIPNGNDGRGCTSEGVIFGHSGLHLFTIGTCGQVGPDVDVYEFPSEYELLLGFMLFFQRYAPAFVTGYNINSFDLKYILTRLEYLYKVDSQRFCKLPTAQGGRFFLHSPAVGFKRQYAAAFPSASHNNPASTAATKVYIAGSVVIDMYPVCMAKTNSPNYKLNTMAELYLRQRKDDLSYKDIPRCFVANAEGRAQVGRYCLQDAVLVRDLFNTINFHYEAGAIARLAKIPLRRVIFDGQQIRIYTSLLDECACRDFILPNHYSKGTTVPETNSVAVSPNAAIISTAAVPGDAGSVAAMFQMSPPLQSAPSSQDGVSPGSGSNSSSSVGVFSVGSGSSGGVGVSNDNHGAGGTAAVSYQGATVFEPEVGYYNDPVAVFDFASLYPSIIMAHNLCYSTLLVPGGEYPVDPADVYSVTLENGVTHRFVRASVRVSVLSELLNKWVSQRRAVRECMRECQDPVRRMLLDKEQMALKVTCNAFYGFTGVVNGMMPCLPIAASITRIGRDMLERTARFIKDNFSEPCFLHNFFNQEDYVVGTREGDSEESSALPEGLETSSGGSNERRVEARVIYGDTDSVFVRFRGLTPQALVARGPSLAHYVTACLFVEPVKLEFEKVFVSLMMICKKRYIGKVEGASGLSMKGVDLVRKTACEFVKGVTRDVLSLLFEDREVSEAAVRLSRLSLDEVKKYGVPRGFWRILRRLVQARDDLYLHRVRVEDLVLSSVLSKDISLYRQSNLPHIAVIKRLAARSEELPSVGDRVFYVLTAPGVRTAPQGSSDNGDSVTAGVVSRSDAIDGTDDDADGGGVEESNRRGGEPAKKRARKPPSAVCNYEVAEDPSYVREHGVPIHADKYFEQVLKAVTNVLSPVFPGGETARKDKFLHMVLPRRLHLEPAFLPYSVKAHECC

With `CC(C)[C@H](N)C(=O)NCCN1CCN(c2cnc3c(cc(C(=O)NCc4ccc(Cl)cc4)c(=O)n3CC(=O)N3CC(C)(F)C3)n2)C1=O` [Compound 37, N-[(4-chlorophenyl)methyl]-5-[2-(3-fluoro-3-methylazetidin-1-yl)-2-oxoethyl]-6-oxo-2-{2-oxo-3-[2-(L-valylamino)ethyl]imidazolidin-1-yl}-5,6-dihydropyrido[2,3-b]pyrazine-7-carboxamide-hydrochloride salt], the IC50 is more than 1 µM in series [1] and more than 10 µM at hERG potassium channel. Besides, the EC50 in series [2] is less than 1 µM. In addition, the CC50 at 4 days in series [3] (MRC5 cells, 4 days, CCK8, highest concentration 40 μM, read-out: MCR5 CC50) is more than 40 µM.
Consider `CN1CCN(c2cnc3c(cc(C(=O)NCc4ccc(Cl)cc4)c(=O)n3CC(=O)N3CC(C)(F)C3)n2)C1=O` [Compound 3, N-[(4-chlorophenyl)methyl]-5-[2-(3-fluoro-3-methylazetidin-1-yl)-2-oxoethyl]-2-(3-methyl-2-oxoimidazolidin-1-yl)-6-oxo-5,6-dihydropyrido[2,3-b]pyrazine-7-carboxamide], for which the IC50 in series [1] is less than 1 µM; on hERG potassium channel, more than 10 µM. The concentration giving a half-maximal response (EC50) in series [2] was less than 1 µM. The same compound gave a CC50 at 4 days in series [3] of more than 40 µM.
In the case of `CC1(F)CN(C(=O)Cn2c(=O)c(C(=O)NCc3ccc(Cl)cc3)cc3nc(N4CCNC4=O)cnc32)C1` [Compound 12, N-[(4-chlorophenyl)methyl]-5-[2-(3-fluoro-3-methylazetidin-1-yl)-2-oxoethyl]-6-oxo-2-(2-oxoimidazolidin-1-yl)-5,6-dihydropyrido[2,3-b]pyrazine-7-carboxamide], the IC50 was less than 1 µM in series [1] and more than 10 µM at hERG potassium channel. In series [2], the 50% effective concentration (EC50) is less than 1 µM. In series [3], this compound displayed a CC50 at 4 days of more than 40 µM.
For `CC(=O)NCCN1CCN(c2cnc3c(cc(C(=O)NCc4ccc(Cl)cc4)c(=O)n3CC(=O)N3CC(C)(F)C3)n2)C1=O` [Compound 19], the IC50 in series [1] was less than 1 µM; at hERG potassium channel, more than 10 µM. Also, the EC50 in series [2] was more than 1 µM. The compound also gave a CC50 at 4 days in series [3] of more than 40 µM.
On to `CC(C(=O)O)N1CCN(c2cnc3c(cc(C(=O)NCc4ccc(Cl)cc4)c(=O)n3CC(=O)N3CC(C)(C)C3)n2)C1=O` (centres unmarked) [Compound 46, 2-[3-(7-{[(4-chlorophenyl)methyl]carbamoyl}-5-[2-(3,3-dimethylazetidin-1-yl)-2-oxoethyl]-6-oxo-5,6-dihydropyrido[2,3-b]pyrazin-2-yl)-2-oxoimidazolidin-1-yl]propanoic acid], for which the results for the IC50 (in series [1]; at hERG potassium channel) were less than 1 µM and more than 10 µM, respectively. Moreover, the EC50 in series [2] was less than 1 µM. Further, the cytotoxic concentration (CC50) at 4 days in series [3] is more than 40 µM.
On to `CC1(F)CN(C(=O)Cn2c(=O)c(C(=O)NCc3ccc(Cl)cc3)cc3nc(N4CCN(CCN)C4=O)cnc32)C1` [Compound 6], for which the IC50 in series [1] is less than 1 µM; at hERG potassium channel, more than 10 µM. Also, the half-maximal effective concentration (EC50) in series [2] was less than 1 µM. This compound also displayed a CC50 at 4 days in series [3] of more than 40 µM.
On to `CC(=O)N(C)CCN1CCN(c2cnc3c(cc(C(=O)NCc4ccc(Cl)cc4)c(=O)n3CC(=O)N3CC(C)(F)C3)n2)C1=O` [Compound 22, 2-(3-{2-[acetyl(methyl)amino]ethyl}-2-oxoimidazolidin-1-yl)-N-[(4-chlorophenyl)methyl]-5-[2-(3-fluoro-3-methylazetidin-1-yl)-2-oxoethyl]-6-oxo-5,6-dihydropyrido[2,3-b]pyrazine-7-carboxamide], for which the IC50 in series [1] was less than 1 µM; on hERG potassium channel it was more than 10 µM. The half-maximal effective concentration (EC50) in series [2] was more than 1 µM. For the same compound, in series [3], the cytotoxic concentration (CC50) at 4 days is more than 40 µM.
Regarding `CC1(F)CN(C(=O)Cn2c(=O)c(C(=O)NCc3ccc(Cl)cc3)cc3nc(N4CCN(CC(=O)O)C4=O)cnc32)C1` [Compound 13, [3-(7-{[(4-chlorophenyl)methyl]carbamoyl}-5-[2-(3-fluoro-3-methylazetidin-1-yl)-2-oxoethyl]-6-oxo-5,6-dihydropyrido[2,3-b]pyrazin-2-yl)-2-oxoimidazolidin-1-yl]acetic acid], the IC50 in series [1] is less than 1 µM; at hERG potassium channel, more than 10 µM. Also, the concentration giving a half-maximal response (EC50) in series [2] is more than 1 µM. In series [3], this compound gave a CC50 at 4 days of more than 40 µM.
For `CC1(C)CN(C(=O)Cn2c(=O)c(C(=O)NCc3ccc(Cl)cc3)cc3nc(N4CCN(C(C)(C)C(=O)O)C4=O)cnc32)C1` [Compound 43, 2-[3-(7-{[(4-chlorophenyl)methyl]carbamoyl}-5-[2-(3,3-dimethylazetidin-1-yl)-2-oxoethyl]-6-oxo-5,6-dihydropyrido[2,3-b]pyrazin-2-yl)-2-oxoimidazolidin-1-yl]-2-methylpropanoic acid], in that order: less than 1 µM, more than 10 µM, less than 1 µM and more than 40 µM.
Consider `CC1(F)CN(C(=O)Cn2c(=O)c(C(=O)NCc3ccc(Cl)cc3)cc3nc(N4CCN(CCNS(C)(=O)=O)C4=O)cnc32)C1` [Compound 16, N-[(4-chlorophenyl)methyl]-5-[2-(3-fluoro-3-methylazetidin-1-yl)-2-oxoethyl]-2-(3-{2-[(methanesulfonyl)amino]ethyl}-2-oxoimidazolidin-1-yl)-6-oxo-5,6-dihydropyrido[2,3-b]pyrazine-7-carboxamide], for which the figures for the IC50 (in series [1]; on hERG potassium channel) were less than 1 µM and more than 10 µM, respectively. In addition, the EC50 in series [2] was more than 1 µM. The compound further registered a 50% cytotoxic concentration (CC50) at 4 days in series [3] of more than 40 µM.
Consider `CC1(F)CN(C(=O)Cn2c(=O)c(C(=O)NCc3ccc(Cl)cc3)cc3nc(N4CCN(Cc5nnn[nH]5)C4=O)cnc32)C1` [Compound 27, N-[(4-chlorophenyl)methyl]-5-[2-(3-fluoro-3-methylazetidin-1-yl)-2-oxoethyl]-6-oxo-2-{2-oxo-3-[(1H-tetrazol-5-yl)methyl]imidazolidin-1-yl}-5,6-dihydropyrido[2,3-b]pyrazine-7-carboxamide], for which the values for the IC50 (in series [1]; at hERG potassium channel) were less than 1 µM and more than 10 µM, respectively. For the same compound, the EC50 in series [2] was more than 1 µM. The compound also showed a CC50 at 4 days in series [3] of more than 40 µM.
